Measured values published in US5212160A, “3-L-(5-thioxo-L-prolyl)thiazolidine-4-carboxylic acid and derivatives therefrom, processes for the preparation thereof and pharmaceutical compositions containing them” (Poli Industria Chimica S.p.A., priority 1990, dated 1993).
Where a SMILES comes first, the peptide text is derived from it. [ ]: non-standard residue; d: D form. pGlu = O=C1CC[C@@H](C(=O)O)N1; Thz = O=C(O)[C@@H]1CSCN1

How the values were obtained:
[1] = Antitoxic activity: protection of rats against formaldehyde toxicity; assay type: in vivo, COBS CD(SD) Rats; conditions: 0.5 mM/kg oral (2 administrations); formaldehyde 900 mg/kg per os; mortality up to 72 hours
Method: (§1) The antitoxic activity was tested by determining the capability of the compounds of the invention to protect rats against formaldehyde and acetaldehyde toxicities (Sprince et al., Agents and Actions, 9, 407, 1979). COBS CD(SD) Rats (C. River) weighing 180-200 g fasted since the night before were orally administered with the test compounds half an hour before and 5 hours after the oral administration of the toxic agent. Formaldehyde was administered at the dose of 900 mg/kg per os and acetaldehyde at the dose of 2150 mg/kg per os; mortality was controlled up to 72 hours later. […] The activity of the compounds of the invention is similar to that of ascorbic acid and L-cysteine. Since acetaldehyde and formaldehyde are an important portion of the toxic agents contained in cigarette smoke, these novel compounds are very important in the treatment of all the lung pathologies connected to tobacco abuse or to atmosphere pollution. The antiradical activity was tested against doxorubicin mortality in the mouse (R. D. Olson et al., Life Sci., 29, 1393, 1981). Groups of 10 male CD-1 mice (C. River) weighing 18-20 g were treated orally with the tested compounds; one hour later doxorubicin was administered at the dose of 22 mg/kg i.p. (10 ml/kg). […]

[2] = system: prednisolone-immunodepressed murine peritoneal macrophages; assay: Superoxide anion production by prednisolone-immunodepressed murine peritoneal macrophages (cytochrome C reduction, PMA stimulated); assay type: in vivo, mice; conditions: for Reduced cytochrome C nmoles/1 × 10^6 macrophages (mean ± s.e.): 200 mg/kg/die i.p. + prednisolone 0.5 mg/kg/die s.c., 11 days, macrophages stimulated with phorbol myristate acetate; for Activity on superoxide anion production compared with PGT: same weight dosage as PGT
Method: Since the production of the superoxide anion (O2.) plays an important role in macrophage antimicrobial activity (N. P. Cumming, M. J. Pabst, J. Exp. Med., 152, 1659, 1980), the test for stimulation of the superoxide anion production in macrophages by medicaments is very important in the evaluation of the immuno-stimulating activity. Therefore, O2. production in isolated peritoneal macrophages from prednisolone-immunodepressed animals treated with the compounds of the invention was evaluated. Mice were treated subcutaneously for 11 days with 0.5 mg/kg/day with prednisolone and with the tested compounds at a dose of 100 mg/kg intraperitoneally twice a day, whereas the day of killing they received the only compounds of the invention. Then macrophages were isolated by means of peritoneal washing and cultured in RPMI-1640 added with 10% bovine foetal serum at a concentration of 1×10^6 cells/ml and at a temperature of +37° C. 1 ml aliquots of the cell suspension were incubated for 15 min. at 37° C. with cytochrome C from horse hearth and stimulated with phorbol myristate acetate (H. Nielsen, Eur. J. Clin. Pharmacol., 30, 99, 1986). After that, a spectrophotometric determination of reduced ferricytochrome C at λ=550 nm was carried out, using an extinction coefficient E (550)=29.5 mM.

[3] = Antitoxic activity: protection of rats against acetaldehyde toxicity; assay type: in vivo, COBS CD(SD) Rats; conditions: 0.5 mM/kg oral (2 administrations); acetaldehyde 2150 mg/kg per os; mortality up to 72 hours
Method: as §1

[4] = Antiradical activity: protection against doxorubicin mortality in the mouse; assay type: in vivo, male CD-1 mice; conditions: 0.5 mM/kg per os 4 times in two days; doxorubicin 22 mg/kg i.p.; mortality checked for 14 days
Method: as §1

Compound | Protection against formaldehyde mortality [1] | Reduced cytochrome C nmoles/1 × 10^6 macrophages (mean ± s.e.) [2] | Activity on superoxide anion production compared with PGT [2] | Protection against acetaldehyde mortality [3] | Protection against doxorubicin mortality [4]
O=C(O)[C@@H]1CSCN1C(=O)[C@@H]1CCC(=S)N1 [Ib, 3-L-(5-thioxoprolyl)thiazolidine-4-carboxylic acid] | 70% | 9.17 ± 0.68 nmoles/1 × 10^6 macrophages | higher activities than that of PGT | 60% | 50%
CCOC(=O)[C@@H]1CSCN1C(=O)[C@@H]1CCC(=S)N1 [Ia, Ethyl 3-L-(L-5-thioxoprolyl)thiazolidine-4-carboxylate] | 60% | 9.15 ± 0.68 nmoles/1 × 10^6 macrophages | higher activities than that of PGT | 70% | 40%
O=C1CC[C@@H](C(=O)N2CSC[C@H]2C(=O)O)N1 [PGT, 3-L-pyroglutamyl-L-thiazolidine-4-carboxylic acid, reference compound] ([pGlu]-[Thz]-OH) |  | 8.33 ± 0.77 nmoles/1 × 10^6 macrophages |  |  | 
